Laboratory results: patent US20070202079A1, “Therapeutic compositions and methods useful in modulating protein tyrosine phosphatases” (priority 2006, published 2007)
Several values for one entry are separate records, joined by “and”; a condition that tells them apart may be missing. Identical values can stand only once. Entries after “also recorded” stand apart in the source; their conditions may differ.

Experiments:
NB4 cells [1] = assay: NB4 growth, cell cycle and Annexin V; type: cell-based, human; details: sodium stibogluconate 250 μg/ml or ATRA 1 μM, 3 days
Protocol: The NB4 cell line (Lanotte et al., Blood 77, 1080 (1991)) was a gift from Dr. Dan Lindner of the Cleveland Clinic Foundation. […] and U937 cell lines were purchased from American Type Culture Collection (Rockville, Md.). These human […] cell lines were maintained in RPMI 1640 medium supplemented with 10% fetal calf serum (FCS). For cell proliferation assays, cells were cultured at 37° C. in 10% FCS medium containing various amounts of sodium stibogluconate for 6 days. The cell numbers in the cultures were determined by an MTT assay as described previously in Mosmann, J. Immunol. Methods 65, 55 (1983).
The cell cycle was analyzed by flow cytometry after 3 days of culture of NB4 cells in the absence or presence of sodium stibogluconate (250 μg/ml) or ATRA (1 μM). Briefly, the cells were fixed in cold ethanol and incubated for 30 minutes at 4° C. in the dark with a solution of […] propidium iodide, 1 mg/ml RNase and 0.1% NP-40. Analysis was performed immediately after staining using the CELLFIT program (Becton Dickinson, Mountain View, Calif.).
Annexin V staining of exposed membrane phospholipid phosphatidylserine (PS) was done using the Annexin V assay kit (Pharmingen, San Diego, Calif.). Briefly, NB4 cells were cultured in the 10% FCS RPMI 1640 medium in the absence or presence of sodium stibogluconate (250 μg/ml) or ATRA (1 μM) for 3 days. Cells were then washed in PBS twice and stained in binding buffer (10 mM Hepes, pH 7.4; 140 mM NaCl; 2.5 mM CaCl2) containing Annexin V-FITC and propidium iodide for 15 min. The reaction was stopped by adding 10 volumes of binding buffer and analyzed by FACS (Becton Dickinson Facsvantage).

HL-60 cells = assay: HL-60 differentiation (NBT reduction); type: cell-based, human; details: day 6
Protocol: (§1) Differentiation of AML cell lines was assessed by their ability to produce superoxide as measured by reduction of NBT to formazan and by analysis of expression of CD11b surface marker by flow cytometry. For NBT reduction, each cell suspension was mixed with an equal volume of solution containing 1 mg/ml of NBT (Sigma) and 2.5 μg/ml of TPA for 30 minutes at 37° C. After incubation, cells containing the purple formazan deposits and cells devoid of NBT-reducing activity (white cells) in each sample were determined by counting 200 cells under microscope. Data is expressed as a percentage based on the following ratio: purple cells/purple+white cells. For analysis of cell surface antigens, cells were exposed to phycoerythrin (PE)-conjugated murine anti-human CD11b (DAKO Corp., Carpinteria, Calif.). Analysis of fluorescence was performed on a FACScan flow cytometer (Beckton Dickinson, Mountain View, Calif.).

NB4 cells [2] = assay: NB4 differentiation (NBT reduction, CD11b); type: cell-based, human
Protocol: as §1

U937 cells = assay: U937 differentiation (NBT reduction); type: cell-based, human; details: day 6
Protocol: as §1

PTP1B = target: T1, PTP1B (Homo sapiens, UniProt P18031); assay: in vitro PTPase assay, GST/PTP1B; type: biochemical; details: 1-1,000 μg/ml
T1 construct: purchased Upstate Biotechnology Inc. (Lake Placid, N.Y.)
Protocol: In vitro PTPase activities were measured using the commercial protein tyrosine phosphatase assay kit (Upstate Biotechnology, Inc. (“UBI”)) following established procedure known to one of skill in the art. This assay measures the in vitro dephosphorylation of a synthetic phosphotyrosine peptide of the sequence Arg-Arg-Leu-Ile-Glu-Asp-Ala-Gle-T- -yr-Ala-Ala-Arg-Gly, wherein the tyrosine is phosphorylated (SEQ ID NO: 3). Briefly, 0.01 μg of GST/PTPase fusion proteins was incubated in 50 μl of Tris buffer (10 mM Tris, pH 7.4) containing different concentrations of inhibitors or chemicals (0-1,000 μg/ml) at 22° C. for 10 minutes, followed by addition of 0.2 mM of the phosphotyrosine peptide and incubation at 22° C. for 18 hours. 100 μl of Malachite Green solution was added and incubated for 5 minutes, and the absorbance at 660 nm was measured after 5 minutes.
In vitro PTPase assays were used to determine the effects of levamisole (Sigma), pentamidine (American Pharmaceutical Partners, Inc.), and ketoconazole (Sigma) on recombinant PTPases, following established procedures (Pathak et al., J. Immunol. 167, 3391 (2001); Pathak et al., Leukemia 16, 2285 (2002), Yi et al., J. Immunol. 169, 5978 (2002)) using a synthetic phosphotyrosine peptide or DiFMUP as the substrate as detailed above in section I.A.2.

[3] = system: Jak2/Stat5 tyrosine phosphorylation in Baf3 cells; assay: cellular protein tyrosine phosphorylation in Baf3 cells, Western blotting; type: cell-based, murine
Protocol: For induction of cellular protein phosphorylation by sodium stibogluconate or pervanadate, Baf3 cells were incubated in 0.1% FCS-RPMI 1640 medium at 37° C. for 16 hours. The cells were then washed twice in RPMI 1640 medium and incubated with sodium stibogluconate or pervanandate (0.1 mM) for various times prior to termination by lysing cells in cold lysis buffer (50 mM Tris, pH 7.4; 150 mM NaCl; 0.2 mM Na3VO4; 20 mm NaF; 1% Nonidet P-40; 2 mM PMSF; 20 μg/ml of Aprotinin and 1 mM of sodium molybdic acid). To determine the effect of sodium stibogluconate or potassium antimonyl tartrate on IL-3-induced Jak/Stat phosphorylation, Baf3 cells were deprived of the growth factor for 16 hours in 0.1% FCS RPMI 1640 medium and then incubated with or without sodium stibogluconate or potassium antimonyl tartrate for 10 minutes. IL-3 was next added to the cell suspension and incubated for various times. The Cells were then harvested and lysed in cold lysis buffer at 4° C. for 45 minutes. Total cell lysates (TCL) were separated in SDS-PAGE gels, blotted onto nitrocellulose membrane (Schleicher & Schuell), probed with specific antibodies and detected using an enhanced chemiluminescence kit (ECL, Amersham, Arlington Heights, Ill.).

Baf3 cells = assay: Baf3 cell proliferation assay; type: cell-based, murine
Protocol: The murine hematopoietic cell line Baf3 was maintained in RPMI 1640 medium supplemented with 10% fetal calf serum (FCS) and murine IL-3 (20 units/ml) as described previously in Damen et al., J. Biol. Chem. 270, 23402 (1995). Human myeloid cell line TF-1 was maintained in RPMI 1640 supplemented with 10% FCS and 40 ng/ml of recombinant human GM-CSF as described previously in Thomassen et al., Clin. Immunol. 95, 85 (2000). For cell proliferation assays, cells were washed in 10% FCS medium twice, resuspended in 10% FCS medium, incubated at 37° C. for 16 hours, and then cultured at 37° C. in 10% FCS medium containing various amounts of cytokines, sodium stibogluconate, or potassium antimonyl tartrate for 3-6 days as indicated. The cell numbers in proliferation assays were determined by an MTT assay or by microscopic cell counting as indicated.

SHP-1 = target: T2, SHP-1 (Mus musculus, UniProt P29351); assay: in vitro PTPase assay, GST/SHP-1; type: biochemical; details: 1-1,000 μg/ml
T2 construct: made in house
Protocol: In vitro PTPase activities were measured using the commercial protein tyrosine phosphatase assay kit (Upstate Biotechnology, Inc. (“UBI”)) following established procedure known to one of skill in the art. […] Briefly, 0.01 μg of GST/PTPase fusion proteins was incubated in 50 μl of Tris buffer (10 mM Tris, pH 7.4) containing different concentrations of inhibitors or chemicals (0-1,000 μg/ml) at 22° C. for 10 minutes, followed by addition of 0.2 mM of the phosphotyrosine peptide and incubation at 22° […] 100 μl of Malachite Green solution was added and incubated for 5 minutes, and the absorbance at 660 nm was measured after 5 minutes.
To assess the reversibility of inhibition of SHP-1 by PTPase inhibitors, GST/SHP-1 fusion protein bound on glutathione beads were pre-incubated in cold Tris buffer or Tris buffer containing the PTPase inhibitors at 4° C. for 30 minutes. The beads were then either subjected to in vitro PTPase assays or washed 3 times in Tris buffer then subjected to in vitro PTPase assays.
Briefly, individual PTPases (0.1 μg/reaction) in 50 μL of PTPase buffer (50 mM Tris, pH 7.4) were incubated at 22° C. for 10 minutes or as indicated in the absence or presence of inhibitory compounds. Substrates (0.2 mM phosphotyrosine peptide) were then added and allowed to react at 22° C. for 18 hrs. PTPase activity of individual reactions was measured by adding 100 μL of malachite green solution (UBI) and then quantifying the amounts of free phosphate cleaved by the PTPase from the peptide substrate by spectrometry (OD660 nm). […] Relative PTPase activities were calculated based on the formula: (PTPase activity in the presence of an inhibitory compound/PTPase activity in the absence of the compound)× 100%. To assess the reversibility of PTPase inhibition, GST fusion proteins of the PTPases bound on glutathione beads (Pharmacia) were pre-incubated with cold Tris buffer (50 mM Tris, pH 7.0) or Tris buffer containing the inhibitor at 4° C. for 30 minutes. The beads were then washed three times in cold Tris buffer or not washed prior to subjecting to in vitro PTPase assays.

Renca tumors = Renca tumors in Balb/c mice; type: in vivo; details: two weeks; SSG 12 mg/daily i.m., i.p.
Protocol: Balb/c and athymic nude Balb/c mice (10 weeks old, female, Taconic Farms, Germantown, N.Y.) were inoculated (s.c.) at the flanks with Renca cells (10^6 cells/site). Four days post-inoculation, the mice were subject to no treatment (Control) or treatment with IL-2 ([…]/daily for 5 days, i.p.), SSG (12 mg/daily, i.m. at hip regions) or the combination of the two agents for two weeks. […] The dose of SSG was similar to the effective daily dose of the drug for the treatment of murine leishmaniasis (Murray, H. W., J. D. Berman, and S. D. Wright. 1988. Immunochemotherapy for intracellular Leishmania donovani infection: gamma interferon plus pentavalent antimony. J Infect Dis 157:973). Tumor volume was measured during the study period and calculated using the formula for a prolate spheroid (V=4/3×a2b) (Lindner, D. J., E. C. Borden, and D. V. Kalvakolanu. 1997. Synergistic antitumor effects of a combination of interferons and retinoic acid on human tumor cells in vitro and in vivo. Clin Cancer Res 3:931). Student's t test was used for assessing the significance of tumor volume differences among differential treatment groups. Mouse viability (daily) and body weights (weekly) were also recorded during the study period. At the end of the study, Renca tumors and major internal organs (heart, kidney, liver, lung and spleen) were harvested for histology and immunohistochemistry analysis.

[4] = system: tumor-infiltrating and spleen immune cells (F4/80+, CD4+, CD8+); assay: immunohistochemistry of Renca tumors and spleen; type: in vivo, Balb/c mice; details: Renca tumors, end of treatment
Protocol: Major internal organs and Renca tumors harvested from mice were fixed in 10% formalin or snap frozen in liquid nitrogen. H & E-stained tissue sections of the fixed samples were prepared and evaluated by microscopy as described previously (Yi, T., M. K. Pathak, D. J. Lindner, M. E. Ketterer, C. Farver, and E. C. Borden. 2002. Anticancer activity of sodium stibogluconate in synergy with IFNs. J Immunol 169:5978). Preparation of frozen tissue sections and immunohistochemistry were performed following established procedures (Joliat, M. J., P. A. Lang, B. L. Lyons, L. Burzenski, M. A. Lynes, T. Yi, J. P. Sundberg, and L. D. Shultz. 2002. Absence of CD5 dramatically reduces progression of pulmonary inflammatory lesions in SHP-1 protein-tyrosine phosphatase-deficient ‘viable motheaten’ mice. J Autoimmun 18:105). The antibodies used for immunohistochemistry were anti-CD4 (rat mAb, clone GK1.5, BD Biosciences, Franklin Lakes, N.J.), anti-CD8 (rat mAb, clone 53-6.7.5, BD Biosciences, Franklin Lakes, N.J.), anti-F4/80 (rat mAb, clone A3-1, Serotec, Oxford, UK) and anti-Asialo GM1 (rabbit polyclonal, Cedarlane, Hornby, Canada). […] Tissue sections of 2 mice/group were evaluated. The number of immune cells was semi-quantified based on the following scheme: […], 0-1 positive cells/40×field; +, 2-5 positive cells/40×field; ++, 6-10 positive cells/40×field, etc.

[5] = sodium stibogluconate 400 μg/ml, GM-CSF 25 ng/ml, ATRA

T1 sequence (P18031 whole entry, species assumed): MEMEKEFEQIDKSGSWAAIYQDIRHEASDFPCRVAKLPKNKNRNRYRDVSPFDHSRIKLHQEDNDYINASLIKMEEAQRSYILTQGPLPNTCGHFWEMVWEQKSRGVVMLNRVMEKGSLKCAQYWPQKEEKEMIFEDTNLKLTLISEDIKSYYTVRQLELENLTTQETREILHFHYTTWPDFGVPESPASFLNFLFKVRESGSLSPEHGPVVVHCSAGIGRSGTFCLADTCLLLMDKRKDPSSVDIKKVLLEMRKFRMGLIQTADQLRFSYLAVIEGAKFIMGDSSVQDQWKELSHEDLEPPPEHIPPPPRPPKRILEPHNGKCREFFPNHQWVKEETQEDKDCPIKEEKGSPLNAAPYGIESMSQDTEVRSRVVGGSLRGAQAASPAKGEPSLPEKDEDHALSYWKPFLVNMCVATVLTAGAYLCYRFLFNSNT
T2 sequence (P29351 whole entry): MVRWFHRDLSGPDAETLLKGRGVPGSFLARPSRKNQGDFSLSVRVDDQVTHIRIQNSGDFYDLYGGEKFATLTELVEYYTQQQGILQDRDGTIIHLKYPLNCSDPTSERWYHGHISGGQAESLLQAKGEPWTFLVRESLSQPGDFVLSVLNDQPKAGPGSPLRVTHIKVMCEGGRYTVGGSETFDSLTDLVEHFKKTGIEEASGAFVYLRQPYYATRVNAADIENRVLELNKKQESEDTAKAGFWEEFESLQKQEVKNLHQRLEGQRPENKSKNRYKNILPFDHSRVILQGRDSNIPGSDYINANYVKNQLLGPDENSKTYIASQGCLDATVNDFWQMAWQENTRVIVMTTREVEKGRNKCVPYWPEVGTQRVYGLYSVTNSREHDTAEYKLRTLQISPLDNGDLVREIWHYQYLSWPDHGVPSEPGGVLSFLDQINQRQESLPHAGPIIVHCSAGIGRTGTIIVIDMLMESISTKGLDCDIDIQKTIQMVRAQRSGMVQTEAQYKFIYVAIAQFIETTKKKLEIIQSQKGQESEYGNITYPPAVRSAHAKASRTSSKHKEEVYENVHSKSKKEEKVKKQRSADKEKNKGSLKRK

For CC1=C(/C=C/C(C)=C/C=C/C(C)=C/C(=O)O)C(C)(C)CCC1 [ATRA, All-trans-retinoic acid], the “cell cycle of NB4 cells” value (NB4 cells [1]) was “arrested at GI phase”, the “NBT-positive (differentiated) HL-60 cells” value (HL-60 cells; [5]) was 90% and the “NB4 differentiation by short exposure versus long term exposure” value (NB4 cells [2]; ATRA) was “modest”. The “NBT-positive (differentiated) U937 cells” value (U937 cells; [5]) was 72% and 73%.
With O.O.O.O=C([O-])[C@H]([O-])[C@@H]([O-])C(=O)[O-].O=C([O-])[C@H]([O-])[C@@H]([O-])C(=O)[O-].[K+].[K+].[Sb+3].[Sb+3] [potassium antimonyl tartrate] the “inhibition of PTP1B” value (PTP1B) was “no detectable inhibition”, the “IL-3-induced Stat5 phosphorylation” value [3] was “failed to enhance IL-3-induced Stat5 phosphorylation” and the “IL-3-induced proliferation of Baf3 cells” value (Baf3 cells) was “failed to enhance”. The “toxicity against Baf3 cells” value (Baf3 cells) was “marked toxicity” and the “inhibition of SHP-1” value (SHP-1) was “no detectable inhibition”.
For “IL-2: recombinant IL-2 (Proleukin, Chiron)”, the “Renca tumor growth inhibition” value (Renca tumors) was “little effects; also recorded: failed to inhibit Renca tumor growth” and the “increase of tumor-infiltrating Mφ (F4/80+)” value [4] was “comparable levels”.
“GM-CSF: recombinant human granulocyte/macrophage colony stimulating factor” was tested, and the “maximal increase of NBT-positive HL-60 cells” value (HL-60 cells; GM-CSF alone 25 ng/ml) was 8-10%, the “effect on NB-4 cell differentiation” value (NB4 cells [2]; GM-CSF alone) was “no detectable effect” and the “maximal increase of NBT-positive U937 cells” value (U937 cells; GM-CSF alone 25 ng/ml) was 8-10%.
